Several values for one entry are separate records, joined by “and”; a condition that tells them apart may be missing. Equal entries are not always repeated.
Legend:
Type in all cases: cell-based
320 non-olfactory GPCRs [1] = target: T1, 320 non-olfactory GPCRs (Homo sapiens, UniProt P25089)
T1 construct: expressed in transfected cells; host or cells: HTLA cells

320 non-olfactory GPCRs [2] = target: T2, 320 non-olfactory GPCRs (Homo sapiens, UniProt P25929); conditions: receptor NPY1R; replicate values, Fig_4g
T2 construct: expressed in transfected cells; host or cells: HTLA cells

320 non-olfactory GPCRs [3] = target: T3, 320 non-olfactory GPCRs (Homo sapiens, UniProt P32245); conditions: receptor MC4R; replicate values, Fig_4g
T3 construct: expressed in transfected cells; host or cells: HTLA cells

320 non-olfactory GPCRs [4] = target: T4, 320 non-olfactory GPCRs (Homo sapiens, UniProt Q969V1); conditions: receptor MCHR2R; replicate values, Fig_4g
T4 construct: expressed in transfected cells; host or cells: HTLA cells
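Wherever Fold of Basal is given: compound tested at 1 µM final concentration.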
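Wherever GPCRome agonism screen response is given: fold over basal response of each receptor without drug.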

T2 sequence (P25929 whole entry): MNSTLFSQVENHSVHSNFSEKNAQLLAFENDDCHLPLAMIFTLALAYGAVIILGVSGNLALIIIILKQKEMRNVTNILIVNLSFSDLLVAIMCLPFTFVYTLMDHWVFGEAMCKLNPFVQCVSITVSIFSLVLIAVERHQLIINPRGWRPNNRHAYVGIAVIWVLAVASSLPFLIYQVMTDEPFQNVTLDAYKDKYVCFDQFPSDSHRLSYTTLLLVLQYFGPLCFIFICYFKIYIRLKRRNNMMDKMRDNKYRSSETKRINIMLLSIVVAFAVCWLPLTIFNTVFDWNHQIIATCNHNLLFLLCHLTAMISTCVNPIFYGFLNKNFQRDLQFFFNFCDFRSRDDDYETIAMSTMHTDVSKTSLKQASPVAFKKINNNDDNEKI
T3 sequence (P32245 whole entry): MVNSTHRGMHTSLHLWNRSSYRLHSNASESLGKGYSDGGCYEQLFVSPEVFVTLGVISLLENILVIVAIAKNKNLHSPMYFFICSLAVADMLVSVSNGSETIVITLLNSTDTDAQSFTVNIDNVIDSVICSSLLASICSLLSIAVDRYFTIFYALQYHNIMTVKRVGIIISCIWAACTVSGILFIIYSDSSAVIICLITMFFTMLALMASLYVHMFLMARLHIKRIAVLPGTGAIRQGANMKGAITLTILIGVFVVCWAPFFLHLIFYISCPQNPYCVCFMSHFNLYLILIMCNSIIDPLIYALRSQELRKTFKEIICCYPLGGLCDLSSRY
T4 sequence (Q969V1 whole entry): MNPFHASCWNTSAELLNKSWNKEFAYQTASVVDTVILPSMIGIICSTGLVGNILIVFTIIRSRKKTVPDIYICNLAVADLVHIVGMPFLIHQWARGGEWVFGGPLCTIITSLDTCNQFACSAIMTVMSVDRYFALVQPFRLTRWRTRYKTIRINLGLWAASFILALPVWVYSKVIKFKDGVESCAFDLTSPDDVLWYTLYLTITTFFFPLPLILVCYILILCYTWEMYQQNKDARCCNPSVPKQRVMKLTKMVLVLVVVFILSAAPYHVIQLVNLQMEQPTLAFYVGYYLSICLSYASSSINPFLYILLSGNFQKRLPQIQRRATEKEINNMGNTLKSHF
T1 sequence (P25089 whole entry): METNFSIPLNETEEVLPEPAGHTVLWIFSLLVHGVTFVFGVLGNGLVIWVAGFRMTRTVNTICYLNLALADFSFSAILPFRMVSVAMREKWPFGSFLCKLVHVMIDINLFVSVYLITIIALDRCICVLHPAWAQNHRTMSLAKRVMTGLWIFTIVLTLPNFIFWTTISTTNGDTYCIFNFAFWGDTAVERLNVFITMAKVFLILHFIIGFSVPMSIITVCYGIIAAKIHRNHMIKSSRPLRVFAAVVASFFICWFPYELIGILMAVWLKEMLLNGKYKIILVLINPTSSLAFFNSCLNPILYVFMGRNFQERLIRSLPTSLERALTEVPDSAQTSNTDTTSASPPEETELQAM

## CCOc1cccc2cc(C(C)NCC3(O)CCCCC3)oc12 (stereo not shown) [O4LE6]
320 non-olfactory GPCRs [1]
  Fold of Basal: 1.168 and 1.052 and 1.054 and 1.032
320 non-olfactory GPCRs [2]
  GPCRome agonism screen response: 0.9657 and 1.278 and 0.9923 and 0.817
320 non-olfactory GPCRs [3]
  GPCRome agonism screen response: 0.7124 and 0.7559 and 1.4135 and 1.293
320 non-olfactory GPCRs [4]
  GPCRome agonism screen response: 1.156 and 0.4645 and 1.04 and 0.6466

From paper PMC7044277 (Nature Communications, 2020)
